“And” between values parts separate entries of the source, which are not always exact repeats. Equal values may be shown once. Read-outs that look alike come from different tables or passages of the source.
Columns and labels:
[1] = amide bond, 14-membered ring, T3P/Et3N
[2] = 14-membered ring
GST-hASK1 = GST-hASK1 (Homo sapiens (Human), UniProt Q99683); experiment: ASK1 TR-FRET assay; format: biochemical; conditions: 5 nM GST-hASK1, 100 μM ATP, 2 μM STK Substrate 3
Method: The protein kinase activity of 5 nM GST-hASK1(Life Technologies PV4011) was assayed with 100 μM ATP and 2 μM of HTRF biotinylated STK Substrate 3 (CisBio Kit 62ST3PEJ), at ambient temperature in 25 mM Hepes, pH 7.5, 50 mM NaCl, 10 mM MgCl2, 0.02% Brij-35, 1 mM DTT, and 1% DMSO.
After a 10 minute pre-incubation, ASK1 protein kinase activity was initiated by addition of 10 μL of 300 μM ATP.

ASK1/MAP3K5 = ASK1/MAP3K5 (Homo sapiens (Human), UniProt Q99683); experiment: ASK1/MAP3K5 assay by Reaction Biology Corp.; format: biochemical; conditions: 20 μM myelin basic protein (MBP), 10 μM ATP
Method: ASK1/MAP3K5 was used as the protein kinase and 20 μM of myelin basic protein (MBP) and 10 μM ATP were used as the substrate.

[3] = target: ASK1 T838 auto phosphorylation in HEK-293T cells (Homo sapiens (Human), UniProt Q99683); experiment: ASK1 (AUTO PHOS T838) assay, MSD format; format: cell-based; conditions: HEK 293T cells transfected with ASK1-V5 full length plasmid, compounds 1 hr at 37° C.; read-out: IC50
ASK1 T838 auto phosphorylation in HEK-293T cells, sequence (Q99683 whole entry): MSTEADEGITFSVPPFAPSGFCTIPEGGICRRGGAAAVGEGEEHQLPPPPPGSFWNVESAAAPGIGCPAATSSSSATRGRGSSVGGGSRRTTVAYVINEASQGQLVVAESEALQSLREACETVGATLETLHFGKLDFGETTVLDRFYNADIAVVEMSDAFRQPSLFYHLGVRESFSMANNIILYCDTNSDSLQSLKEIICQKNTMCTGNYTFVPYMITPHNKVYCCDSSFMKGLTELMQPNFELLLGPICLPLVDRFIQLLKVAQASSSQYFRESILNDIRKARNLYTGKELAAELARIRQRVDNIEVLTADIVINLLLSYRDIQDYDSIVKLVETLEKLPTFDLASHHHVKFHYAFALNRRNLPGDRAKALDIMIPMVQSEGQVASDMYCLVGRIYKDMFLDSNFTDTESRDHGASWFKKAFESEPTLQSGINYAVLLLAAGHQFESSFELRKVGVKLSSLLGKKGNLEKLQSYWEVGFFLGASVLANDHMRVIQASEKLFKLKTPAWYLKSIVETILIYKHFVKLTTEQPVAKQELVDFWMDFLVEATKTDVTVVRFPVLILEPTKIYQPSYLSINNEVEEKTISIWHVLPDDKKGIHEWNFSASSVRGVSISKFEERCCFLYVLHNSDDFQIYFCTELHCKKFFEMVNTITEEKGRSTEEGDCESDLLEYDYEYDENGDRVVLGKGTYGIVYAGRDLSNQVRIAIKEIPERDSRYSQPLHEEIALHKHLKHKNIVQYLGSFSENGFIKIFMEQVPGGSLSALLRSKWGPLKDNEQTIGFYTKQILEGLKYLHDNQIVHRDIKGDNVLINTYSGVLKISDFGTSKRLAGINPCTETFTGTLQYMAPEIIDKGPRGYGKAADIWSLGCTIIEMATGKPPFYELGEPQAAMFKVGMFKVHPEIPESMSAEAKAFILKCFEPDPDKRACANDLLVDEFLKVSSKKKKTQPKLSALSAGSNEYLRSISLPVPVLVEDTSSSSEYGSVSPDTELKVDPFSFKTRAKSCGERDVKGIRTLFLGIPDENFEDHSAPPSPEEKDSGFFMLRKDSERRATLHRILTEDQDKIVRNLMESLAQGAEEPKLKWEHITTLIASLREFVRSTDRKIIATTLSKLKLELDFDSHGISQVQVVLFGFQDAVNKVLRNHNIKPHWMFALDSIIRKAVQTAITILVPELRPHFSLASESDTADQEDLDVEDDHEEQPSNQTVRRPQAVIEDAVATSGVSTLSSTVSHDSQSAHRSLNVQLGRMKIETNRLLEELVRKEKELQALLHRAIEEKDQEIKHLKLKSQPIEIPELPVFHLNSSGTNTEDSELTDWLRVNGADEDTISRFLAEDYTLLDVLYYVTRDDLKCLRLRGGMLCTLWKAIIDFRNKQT

GST-hASK1, sequence (Q99683 649-946): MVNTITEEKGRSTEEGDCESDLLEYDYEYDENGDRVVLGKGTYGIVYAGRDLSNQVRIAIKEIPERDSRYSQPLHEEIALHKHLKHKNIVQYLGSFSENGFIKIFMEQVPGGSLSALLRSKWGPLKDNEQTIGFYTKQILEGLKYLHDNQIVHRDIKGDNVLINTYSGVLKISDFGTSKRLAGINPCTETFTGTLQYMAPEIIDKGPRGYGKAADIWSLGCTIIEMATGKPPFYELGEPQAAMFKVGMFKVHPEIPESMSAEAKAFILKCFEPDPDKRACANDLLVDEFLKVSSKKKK
ASK1/MAP3K5, sequence (Q99683 whole entry): as the sequence (Q99683 whole entry) above

Row | IC50 (GST-hASK1) [nM] | IC50 (ASK1/MAP3K5) [nM] | IC50 [3] [nM] | SMILES | also measured
1 |  |  |  | O=C1Nc2cccc(n2)-c2nncn2CCCCOc2cc(Cl)ccc21 | ring closure, isolated yield (from Nc1cccc(-c2nncn2CCCCOc2cc(Br)ccc2C(=O)O)n1, amide bond, 14-membered ring, T3P/Et3N, Et3N/EtOAc, 116.0 mM, 50.0 °C, 3.0 h): 27%
2 |  |  |  | CC1CCOc2cc(F)c(Cl)cc2C(=O)Nc2cccc(n2)-c2nncn2C1 (racemic) | ring closure, isolated yield (from CC(CCOc1cc(F)c(Br)cc1C(=O)O)Cn1cnnc1-c1cccc(N)n1, amide bond, 14-membered ring, T3P/Et3N, Et3N/EtOAc, 43.0 mM, 70.0 °C, 2.0 h): 23%
3 |  |  |  | CC1CCCOc2cc(Cl)ccc2C(=O)Nc2cccc(n2)-c2nncn21 (racemic) | ring closure, crude yield ([1]; from CC(CCCOc1cc(Br)ccc1C(=O)O)n1cnnc1-c1cccc(N)n1, EtOAc/Et3N, 50.0 °C, 12.0 h): 37%
4 |  |  |  | O=C1Nc2cccc(n2)-c2nncn2CCCCOc2cc(F)c(Cl)cc21 | ring closure, isolated yield (from Nc1cccc(-c2nncn2CCCCOc2cc(F)c(Br)cc2C(=O)O)n1, amide bond, 14-membered ring, T3P/Et3N, Et3N/EtOAc, 117.0 mM, 80.0 °C, 17.0 h): 35%
5 |  |  |  | O=C1Nc2cccc(n2)-c2nncn2CC=CCOc2cc(C(F)(F)F)ccc21 | ring closure, isolated yield (from C=CCOc1cc(C(F)(F)F)ccc1C(=O)Nc1cccc(-c2nncn2CC=C)n1, rcm bond, 14-membered ring, Hoveyda-Grubbs II (10 mol%), DCE, 2.64 mM, 80.0 °C, 3.0 h): 41%
6 |  |  |  | O=C1Nc2cccc(n2)-c2nncn2CCCCOc2cc(Cl)c(F)cc21 | ring closure, isolated yield (from Nc1cccc(-c2nncn2CCCCOc2cc(Br)c(F)cc2C(=O)O)n1, amide bond, 14-membered ring, T3P/Et3N, Et3N/EtOAc, 110.0 °C, 0.05 h, 2 steps): 55%
7 |  |  |  | O=C1Nc2cccc(n2)-c2nncn2CCCCOc2cc(C(F)(F)F)c(Cl)cc21 | ring closure, yield after HPLC ([2]; from Nc1cccc(-c2nncn2CCCCOc2cc(C(F)(F)F)c(Br)cc2C(=O)O)n1, amide bond, T3P/Et3N, Et3N/EtOAc, 18.0 mM, 50.0 °C, 4.0 h): 40%
8 |  |  |  | CC(C)(C)OC(=O)N1C(=O)c2ccc(C(F)(F)F)cc2OCC=CCn2cnnc2-c2cccc1n2 | ring closure, yield after HPLC ([2]; from C=CCOc1cc(C(F)(F)F)ccc1C(=O)N(C(=O)OC(C)(C)C)c1cccc(-c2nncn2CC=C)n1, rcm bond, Hoveyda-Grubbs I (20 mol%), toluene, 1.9 mM, 110.0 °C, 17.0 h): 9% and 13%
9 | < 100 | < 100 | < 1000 | O=C1Nc2cccc(n2)-c2nncn2CCCCCOc2ccc(N3CCOCC3)cc21 [Example 172, 5^5-Morpholino-1^4H-6-oxa-3-aza-2(2,6)-pyridina-1(3,4)-triazola-5(1,2)-benzenacycloundecaphan-4-one] | 
10 | < 100 | < 100 | < 1000 | Cc1cn(-c2ccc3c(c2)C(=O)Nc2cccc(n2)-c2nncn2[C@@H](C)CCCO3)cn1 [Example 94, (S)-10-Methyl-5^5-(4-methyl-1H-imidazol-1-yl)-1^4H-6-oxa-3-aza-2(2,6)-pyridina-1(3,4)-triazola-5(1,2)-benzenacyclodecaphan-4-one] | 
11 | < 100 | < 100 | < 1000 | O=C1Nc2cccc(n2)-c2nncn2CCCCOc2ccc(-n3cnc(C4CC4)c3)cc21 [Example 22, 5^5-(4-Cyclopropyl-1H-imidazol-1-yl)-1^4H-6-oxa-3-aza-2(2,6)-pyridina-1(3,4)-triazola-5(1,2)-benzenacyclodecaphan-4-one] | 
12 | < 100 | < 100 | < 1000 | O=C1Nc2cccc(n2)-c2nncn2CCCCOc2ccc(N3CCC(F)(F)CC3)cc21 [Example 12, 5^5-(4,4-Difluoropiperidin-1-yl)-1^4H-6-oxa-3-aza-2(2,6)-pyridina-1(3,4)-triazola-5(1,2)-benzenacyclodecaphan-4-one] | 
13 | < 100 | < 100 | < 1000 | O=C1Nc2cccc(n2)-c2nncn2CCCCOc2ccc(-c3cccnc3)cc21 [Example 26, 5^5-(Pyridin-3-yl)-1^4H-6-oxa-3-aza-2(2,6)-pyridina-1(3,4)-triazola-5(1,2)-benzenacyclodecaphan-4-one] | 
14 | < 100 | < 100 | < 1000 | Cc1ccc2c(c1)C(=O)Nc1cccc(n1)-c1nncn1CCCCO2 [Example 18, 5^5-Methyl-1^4H-6-oxa-3-aza-2(2,6)-pyridina-1(3,4)-triazola-5(1,2)-benzenacyclodecaphan-4-one] | 
15 | < 100 | < 100 | < 1000 | O=C1Nc2cccc(n2)-c2nncn2CCCCOc2ccc(C3CCOCC3)cc21 [Example 17, 5^5-(Tetrahydro-2H-pyran-4-yl)-1^4H-6-oxa-3-aza-2(2,6)-pyridina-1(3,4)-triazola-5(1,2)-benzenacyclodecaphan-4-one] | 
16 | < 100 | < 100 | < 1000 | O=C1Nc2cccc(n2)-c2nncn2CCCCOc2ccc(-c3ccncc3)cc21 [Example 27, 5^5-(Pyridin-4-yl)-1^4H-6-oxa-3-aza-2(2,6)-pyridina-1(3,4)-triazola-5(1,2)-benzenacyclodecaphan-4-one] | 
17 |  |  |  | O=C1Nc2cccc(n2)-c2nncn2CCCCOc2ccc(Cl)cc21 | ring closure, isolated yield (from Nc1cccc(-c2nncn2CCCCOc2ccc(Br)cc2C(=O)O)n1, amide bond, 14-membered ring, T3P/Et3N, Et3N/EtOAc, 76.0 mM, 80.0 °C, 4.0 h): 41%
18 | < 100 | < 100 | < 1000 | Cc1cn(-c2ccc3c(c2)C(=O)Nc2cccc(n2)-c2nncn2[C@H](C)CCCO3)cn1 [Example 93, (R)-10-Methyl-5^5-(4-methyl-1H-imidazol-1-yl)-1^4H-6-oxa-3-aza-2(2,6)-pyridina-1(3,4)-triazola-5(1,2)-benzenacyclodecaphan-4-one] | 
19 |  |  |  | CC1CCCn2cnnc2-c2cccc(n2)NC(=O)c2cc(Cl)ccc2O1 (racemic) | ring closure, crude yield ([1]; from CC(CCCn1cnnc1-c1cccc(N)n1)Oc1ccc(Br)cc1C(=O)O, Et3N/EtOAc, 137.0 mM, 70.0 °C, 3.0 h): 57%
20 |  |  |  | CC(C)(C)OC(=O)N1C(=O)c2cc(Br)c(F)cc2OCCC=CCn2cnnc2-c2cccc1n2 | ring closure, isolated yield (from C=CCCOc1cc(F)c(Br)cc1C(=O)N(C(=O)OC(C)(C)C)c1cccc(-c2nncn2CC=C)n1, rcm bond, 15-membered ring, Hoveyda-Grubbs I (20 mol%), toluene, 1.66 mM, 110.0 °C, 17.0 h): 31%
21 | < 100 | < 100 | < 1000 | O=C1Nc2cccc(n2)-c2nncn2CCCCOc2ccc(N3CC(F)(F)C3)cc21 [Example 9, 5^5-(3,3-Difluoroazetidin-1-yl)-1^4H-6-oxa-3-aza-2(2,6)-pyridina-1(3,4)-triazola-5(1,2)-benzenacyclodecaphan-4-one] | 

Row | SMILES | IC50 (GST-hASK1) [nM] | IC50 (ASK1/MAP3K5) [nM] | IC50 [3] [nM] | also measured
22 | O=C1Nc2cccc(n2)-c2nncn2CCCCOc2ccc(N3C4COCC3C4)cc21 [Example 8, 5^5-(3-Oxa-6-azabicyclo[3.1.1]heptan-6-yl)-1^4H-6-oxa-3-aza-2(2,6)-pyridina-1(3,4)-triazola-5(1,2)-benzenacyclodecaphan-4-one] | < 100 | < 100 | 1000 to 10000 | 

Reference: patent US11168095B2, “ASK1 inhibiting agents” (BIOGEN MA INC., priority 2017, dated 2021)
